# Read-outs that look alike come from different tables or passages of the source.
# Assays:
# [1] = tested on: phenyl-p-benzoquinone-induced writhing; assay: Phenylquinone Writhing (P.Q.W.); format: in vivo, mouse; details: po
# eyelid closure (ptosis) [2] = assay: Ptosis, mouse; format: in vivo; details: mouse, po; passive ptosis; read-out: Ptosis MED
# eyelid closure (ptosis) [3] = assay: Ptosis, rat; format: in vivo; details: rat, po; passive ptosis; read-out: Ptosis MED
# Excerpt: Degree of eyelid closure is used as a measure of central nervous system depression. An animal is removed from its observation cage and allowed to remain outside the cage for 30 seconds. At the end of this time a rating of degree of eyelid closure is made on an arbitrary scale.
# catalepsy [4] = assay: Catalepsy, mouse; format: in vivo; details: mouse, po; read-out: Catalepsy MED
# Excerpt: (§1) The ability of an animal to remain in an abnormal position is used as another indication of central nervous system depressant activity. A test animal is removed from its observation cage and positioned so that its hind legs are on the table top and its front legs rest on the side of the observation cage. If an animal maintains this position for at least 10 seconds, it is considered to be showing cataleptic behavior.
# catalepsy [5] = assay: Catalepsy, rat; format: in vivo; details: rat, po; read-out: Catalepsy MED
# Excerpt: as §1
# locomotor activity [6] = assay: Decreased Locomotor Activity (L.M.A.), mouse; format: in vivo; details: mouse, po; minimal effective dose; read-out: L.M.A. MED
# Protocol: (§2) Decreased Locomotor Activity (L.M.A.)
# (§3) This reaction sign is measured subjectively by observing how an animal behaves when it is removed from an observation cage and placed on a table top. […] The degree of stimulation by the observer needed to produce active locomotion is rated on an arbitrary scale. This ranges from a score of -1 where only a slight touch of the animal's body is required to a -4 where the animal is unresponsive or minimally responsive to the application of a pain stimulus (pressure at the base of the tail). The minimal effective dose (MED) is the lowest oral dose producting an obvious decrease of locomotor activity (with a score of at least -1). Groups of 3 mice are given decreasing oral doses at 0.5 log intervals (300, 100, 30. . .etc.) until no behavioral effects are evident. Decrease of locomotor activity is indicative of general central nervous system depressant activity.
# locomotor activity [7] = assay: Decreased Locomotor Activity (L.M.A.), rat; format: in vivo; details: po; minimal effective dose; read-out: L.M.A. MED
# Protocol: as §2, §3
# [8] = tested on: fear / feeding in approach-avoidance conflict; assay: Rat Conflict (Approach-Avoidance) Test; format: in vivo; details: rat, po; after 1 or 2 hours; read-out: Conflict MED
# Protocol: Rat Conflict (Approach-Avoidance) Test (Conflict)
# Results given in: mg/kg po/rat
# Food deprived rats are trained to pass from one compartment to an adjacent one to obtain food. The training consists of 3 exposures to the test situation on day one of the experiment. The rats are given limited (1-2 hr) free access to food in their home cages on day one and are then food deprived for at least 18 hours. On day two of the experiment, the rats are given a control exposure to the test situation followed by a second exposure after one-half to 1 hour in which they are shocked after crossing and eating. Groups of 6-8 rats are then dosed orally with solvent or test compound and then re-exposed to the test situation after 1 or 2 hours.
# Compounds showing minor tranquilizer (anxiolytic) activity in man such as diazepam and meprobamate produce an apparent decreased fear in the test animals so that they cross to obtain food despite having received a shock earlier. This effect is dose-related (and the MED is the minimum dose at which this effect is obtained); rats dosed with solvent only consistently show a high level of fear as evidenced by decreased mobility and absence of feeding when placed in the test situation after receiving a shock.
# [9] = tested on: conditioned avoidance response; assay: Conditioned Avoidance Response (C.A.R.), rat; format: in vivo; details: rat, po; block of C.A.R. in 50% of animals; 1, 2, and 4 hours; read-out: C.A.R. ED50
# Protocol: (§4) Mouse and Rat Conditioned Avoidance Response (C.A.R.):
# (§5) Mice and rats are trained to jump out of a pit onto a ledge to avoid shock when presented with a light and sound conditioned stimulus. The animals are tested 1, 2, and 4 hours after administration of the test compound. Three to four dose levels and groups of 4-8 animals/dose are used. The ED50 is the dose producing a block of the C.A.R. in 50% of the animals. Blocking of the C.A.R. at non-toxic doses appears to correlate with major tranquilizer activity in man.
# [10] = tested on: conditioned avoidance response; assay: Dog Conditioned Avoidance Response (C.A.R.); format: in vivo; details: Canis lupus familiaris; dog, po; 5 or more incorrect responses in 50% of animals; 1, 2, and 4 hours; read-out: C.A.R. ED50
# Protocol: Dog Conditioned Avoidance Response (C.A.R.):
# Results given in: mg/kg po/dog
# Dogs are trained to raise a forelimb when presented with a conditioned stimulus (light) in order to avoid an electric shock. Blocks of 10 trials are given to groups of 4 dogs during a pretreatment period and at 1, 2, and 4 hours after oral administration of the test compound. The ED50 values are calculated as the dose causing 50% of the animals to show 5 or more incorrect responses. Blocking of the C.A.R. at non-toxic doses appears to correlate with major tranquilizer activity in man.
# [11] = tested on: conditioned avoidance response; assay: Conditioned Avoidance Response (C.A.R.), mouse; format: in vivo; details: mouse, po; block of C.A.R. in 50% of animals; 1, 2, and 4 hours; read-out: C.A.R. ED50
# Protocol: as §4, §5
# TBZ-induced ptosis [12] = assay: Tetrabenazine Antagonism (T.B.Z.A.), rat; format: in vivo; details: 1 h; rat, po; TBZ 40 mg/kg s.c. one hour after compound; read-out: T.B.Z.A. ED50
# Protocol: (§6) Tetrabenazine Antagonism (T.B.Z.A.)
# (§7) The tetrabenazine (TBZ) antagonism test is used to test for potential antidepressant-like activity in rodents. One hour after oral administration of a test compound, a 40 mg/kg dose of TBZ is given subcutaneously. Thirty minutes after TBZ administration, the mice are placed in the center of a circle; the diameter of the circle is twice the body length of the mouse or rat. After 30 seconds, a reading is made of the degree of ptosis and whether the animal has moved out of the circle. Animals that have received only TBZ will show marked ptosis and immobility. Tricyclic antidepressants of the imipramine type will antagonize the ptosis but not the immobility. Antidepressants of the amphetamine or monoamine oxidase inhibitory type will antagonize both the ptosis and immobility induced by TBZ. The ED50 is the dose producing antagonism of TBZ-induced ptosis, but not of TBZ-induced immobility, in 50% of the animals.
# taming = assay: Rhesus Monkey Taming Effects; format: in vivo; details: Macaca mulatta; rhesus monkey, po; read-out: Taming MED
# Protocol: Rhesus Monkey Taming Effects (Taming):
# Results given in: mg/kg po/monkey
# Compounds are administered orally to groups of 6 rhesus monkeys. The behavior of the animals is then evaluated by observational means. Taming effects are determined by the ability of the observer to approach and touch the monkey. Compounds with major tranquilizer activity in man can produce a state of passive tameness in the rhesus monkey wherein it can be touched without provoking any of the threatening or aggressive behavior seen in the normal animal. The MED is the minimal oral dose at which some taming effect can be observed.
# TBZ-induced ptosis [13] = assay: Tetrabenazine Antagonism (T.B.Z.A.), mouse; format: in vivo; details: 1 h; mouse, po; TBZ 40 mg/kg s.c. one hour after compound; read-out: T.B.Z.A. ED50
# Protocol: as §6, §7
SMILES,minimal effective dose (eyelid closure (ptosis) [2]) [mg/kg],minimal effective dose (eyelid closure (ptosis) [3]) [mg/kg],minimal effective dose (catalepsy [4]) [mg/kg],minimal effective dose (catalepsy [5]) [mg/kg],minimal effective dose (locomotor activity [6]) [mg/kg],minimal effective dose (locomotor activity [7]) [mg/kg],further results
COc1ccc2c3c1O[C@H]1[C@@H](O)C=C[C@H]4[C@@H](C2)N(C)CC[C@@]341 [Codeine phosphate],,,,,,,"ED50 ([1]; Mus musculus, read-out: Analgesic ED50): 19 mg/kg"
CC(=O)Oc1ccccc1C(=O)O [aspirin],,,,,,,"ED50 ([1]; 0.5 h, mouse, phenyl-p-benzoquinone 2.5 mg/kg i.p. 30 minutes after compound, read-out: P.Q.W. ED50): 94 mg/kg"
"c1ccc(CN2CCc3c(c4cccc5c4n3-c3ccccc3CC5)C2)cc1 [benzyl hexahydro, 3-benzyl-1,2,3,4,8,9-hexahydropyrido[4',3':2,3]indolo[1,7-ab][1] benzazepine]",> 300,> 300,> 300,> 300,~200,> 300,
COc1ccc2c3c1O[C@H]1[C@@H](O)C=C[C@H]4[C@@H](C2)N(C)CC[C@@]341 [codeine],,,,,,,"ED50 ([1]; Mus musculus, 0.5 h, read-out: P.Q.W. ED50): 19 mg/kg"
CCN1CCc2c(c3cccc4c3n2-c2ccccc2CC4)C1 [ethyl hexahydro],30,> 300,> 300,> 300,30,30,minimal effective dose [8]: 20 mg/kg; ED50 [9]: > 40 mg/kg; ED50 [10]: > 30 mg/kg; ED50 [11]: > 40 mg/kg; ED50 (TBZ-induced ptosis [12]): > 100 mg/kg; minimal effective dose (taming): > 20 mg/kg; ED50 (TBZ-induced ptosis [13]): > 100 mg/kg
CC(C)CN1CCc2c(c3cccc4c3n2-c2ccccc2CC4)C1 [isobutyl hexahydro],~60,,~60,,~60,,
"CN1CCc2c(c3cccc4c3n2-c2ccccc2CC4)C1 [methyl hexahydro, 1,2,3,4,8,9-hexahydro-3-methylpyrido[4',3':2,3]indolo[1,7-ab][1]benzazepine]",30,30,300,100,10,30,minimal effective dose [8]: 20 mg/kg; ED50 [9]: 30 mg/kg; ED50 [10]: > 30 mg/kg; ED50 [11]: 20 mg/kg; ED50 (TBZ-induced ptosis [12]): > 100 mg/kg; minimal effective dose (taming): 10 mg/kg; ED50 (TBZ-induced ptosis [13]): > 100 mg/kg
